Experimental data reported in patent US20190358288A1, “COMPOSITIONS AND METHODS FOR TREATING OR PREVENTING ENVIRONMENTAL ENTEROPATHY” (INNOVATE BIOPHARMACEUTICALS, INC., priority 2017, published 2019).
Where no end group is shown, it is not given here.

Tested on: T84 monolayers
From the text: T84 cells are a human colonic epithelial cell line that differentiates and creates tight junctions. T84 cells are a model for colonic inflammation.

Question: GGVLVQPG (SEQ ID NO:1) [Larazotide] was tested. Which “concentration dependence of the effect of protecting T84 monolayers from disruption by Streptococcus KS47” value (FIG. 3) did it give?
Answer: concentration dependent

Question: And the “protection of T84 monolayers from disruption by Shigella” value (T84 human colonic epithelial cell line, FIG. 1)?
Answer: does not protect
